Laboratory results reported in the NIST ThermoML archive (doi:10.1021/je020113t).
Numbers after ± are expanded uncertainties.

Settings: visual observation

Compound	Normal melting temperature (Crystal)	Normal melting temperature (Crystal 1)
Cc1nccn1C [1,2-dimethyl-1H-imidazole]	38.4 ± 0.5 °C	–
c1c[nH]cn1 [1H-imidazole]	89.10 ± 0.5 °C	–
Cc1ncc[nH]1 [2-methylimidazole]	–	146 ± 0.5 °C
